Experimental data published in publication PMC11311241, “In Situ Forming, Enzyme-Responsive Peptoid-Peptide Hydrogels: An Advanced Long-Acting Injectable Drug Delivery System” (Journal of the American Chemical Society, 2024).
Where two headings read alike, the source gives them in different places.

Key:
[1] = rats
Protocol: Female Sprague–Dawley rats (n = 18, aged 8–10 weeks, mean weight = 220 g) were purchased from Envigo and acclimatized for 1 week prior to experimentation.
This treatment was then administered intravenously to the tail vein (8.46 mg kg−1).15 The
extraction from blood plasma samples was possible. The peptoid-D-peptide experimental
injectable solution was formed by dissolving lyophilized UV-sterilized
mL) were obtained from the tail vein of each rat and collected in 1.5 mL preheparinized
group. Centrifugation (13,400 rpm, 10 min) was utilized to separate blood plasma
be analyzed via analytical RP-HPLC and a validated calibration curve (Figure S35) as outlined
The pharmacokinetic parameters were calculated using PKSolver 2.0.16, 17 The
parameters studied were the drug half-life (t1/2), the time to peak drug concentration (Tmax), the
maximum plasma concentration (Cmax), the area under the plasma concentration – time curve
from time zero to the last quantifiable concentration on day 35 (AUC0−35), the observed area
under the plasma concentration – time curve extrapolated from time zero to infinity (AUC0-
∞,obs) and the mean residence time (MRT) of the drug extrapolated from time zero to infinity.

HIV = conditions: cited from earlier work
alkaline phosphatase = conditions: for Strain at complete deformation (G′ and G″ intersect): strain sweep 0.1–1000%, 2.5 rad s-1, 5% w/v gels; for Strain at which the weaker network breaks / Strain at which the stronger second network or entanglement breaks: strain sweep, 5% w/v gels; for Strain at which the weaker network breaks: first deformation; for Strain at which the stronger second network or entanglement breaks: second deformation
Excerpt: Our drug delivery system is partly defined by drug diffusion from the hydrogel matrix, and hydrolysis of the peptoid-peptide-drug chemical linker. Reproducing supramolecular gels’ mechanical properties is difficult, especially for peptide-based systems. Experimental parameters and formulation factors are particularly important, as highlighted recently by the Adams and Draper groups.[77],[78] Subtle experimental influences e.g. handling and temperature, can lead to issues with reproducibility. […] Loss (G″) and storage (G′) moduli, critical strain (%) and oscillatory time sweeps were performed to determine the rheological changes with time and the potential for rapid in situ hydrogel depot formation upon exposure to 3.98 U mL^–1 phosphatase enzyme. […] Hydrogel formation occurs when the storage modulus (G′) is at least 1 order of magnitude greater than the loss modulus (G″).[79]
Rapid gelation is important for in situ formation of drug delivery depots to reduce the diffusion of drug(s) from the depot and potential burst release. Quick gelation after injectable administration is also important for our system in order to reduce the availability of the peptoid-peptide ester linkage with the drug to water within the subcutaneous space, providing a diffusion barrier to rapid drug cleavage by hydrolysis.[84] There are several ways in which time for gelation can be defined: a) the time at which the storage modulus (G′) and loss modulus (G″) cross indicating greater solid-like behavior; b) the time point at which G′ is greater by 1 order of magnitude than G″; and c) the time at which G′ and G″ begin to stabilize/plateau. […]
(i) peptoid-peptide sequence dissolved in PBS prior to addition of 2 U alkaline phosphatase, (ii) after 2 U alkaline phosphatase addition and formulation as outlined in Table S2.
S.4. Oscillatory rheology
Anton Paar MCR302 rheometer (Anton Paar, St Albans, UK). Gels were formulated at a 2 mL volume in 7 mL Sterilin ™ vials as previously described .8 A vane and cup geometry was used to perform both frequency and strain sweeps. Frequency sweeps were performed at 37 °C from 1 – 100 rad s-1 at a strain of 0.5%. […] sweeps were perform ed at 37°C, 2.5 rad s-1 and a strain of 0.1 – 1000%. Gel strength was measured by determining the strain at which the gels […]
Table S3. Gelation times for peptoid-L-peptide and peptoid-D-peptide hydrogels upon addition of alkaline phosphatase enzyme derived from data in Figures S25 – S27 S40 and […]
* Mean value of storage modulus (G′) and loss modulus (G″) for each peptoid-peptide derived

NCTC 929 cells [2] = assay: MTS cell viability / metabolic activity assay; assay type: cell-based, murine; conditions: fully solubilized, 500 μM, 6, 24 and 72 h, vs media-only control, nine replicates
Protocol: (§1) Peptoid-peptide cell cytotoxicity studies were performed using the International Standard (ISO) murine fibroblast subcutaneous connective tissue NCTC 929 (ATCC CCL 1) cell line.[108],[116] Cell cytotoxicity was assessed using three separate assays, outlined fully in Section S.7 of the Supporting Information: (i) 3-(4,5-dimethylthiazol-2-yl)-5-(3-carboxymethoxyphenyl)-2-(4-sulfophenyl)-2H-tetrazolium (MTS) colorimetric assay, (ii) lactate dehydrogenase (LDH) release and (iii) a Live/Dead assay. The cytotoxicity of each peptoid-peptide was tested after 6 (LDH, MTS), 24 (Live/Dead, MTS) and 72 h (MTS) of exposure. […]
The MTS-based CellTiter 96 AQueous One Solution Cell Proliferation Assay (Promega, Southampton, UK) was used to analyze the metabolic activity of treated cells.3 UV absorption was measured at 490 nm using a Tecan Sunrise plate reader (Tecan UK Ltd, Reading, UK) and cell viability/percentage metabolic activity was calculated as outlined in Equation 2 below. […]
LDH release was quantified as a measure of cytotoxicity using a Cytotoxicity Detection KitPLUS assay (Sigma-Aldrich, Dorset, UK) as previously described.13 The cells were incubated, with each solubilized peptoid-peptide (20 – 500 μM) in combination with NCTC 929 cells for 6 hours, after which 100 μL of test reagent was added to each well, and incubated

[3] = In vitro zidovudine release from hydrogels in PBS, with KinetDS modelling; assay type: physicochemical
Excerpt: This is typical of physically encapsulated drug release systems, which are prone to drug leakage and a high burst release.[8],[95] The release profile was monitored over the entire 28 day profile. […] Physically encapsulated systems are more applicable to acute drug delivery applications where rapid treatment, such as pain relief, is required at a high dose for a shorter time period. […] Drugs are released from the hydrogel systems in an unmodified form via simple hydrolysis of the drug-ester linkage under physiological conditions. In practice, diffusion through the peptoid-peptide hydrogel matrix and into the surrounding fluid would enable uptake into the systemic circulation. […] There appears to be a link between gelation times for peptoid-L-peptide and peptoid-D-peptide hydrogels, defined by rheological time sweeps (Figures 2f, S25c–f and Table S3). […] It is well established that rapid gel formation minimizes burst release of drug and this is especially relevant to our system,[96] whereby the presence of a gel should act as a diffusional barrier, reducing the ability of water to hydrolyze the covalent ester linkage between peptoid-peptide and drug.
KinetDS software was utilized to further understand the drug release kinetics of these novel peptoid-peptide hydrogel platforms. Various kinetic models, including zero-order, first-order, Korsmeyer–Peppas, Hixson–Crowell, Higuchi and Weibull models were applied to determine the mechanism of drug release. […] For injectable hydrogel-forming depots quantified by cumulative release, zero-order, first-order and Korsmeyer–Peppas models tend to be the most relevant for establishing the mechanism of drug release kinetics. The Higuchi model applies to drug release driven mainly by diffusion only and it is accepted that this model should not be used when hydrogel swelling may be a factor in release.[97]−[99] […] The Weibull model is associated more with nanoparticles and heterogeneous formulations; however its application in model injectable hydrogels is increasing.[101],[102] […] This indicates super case II transport (n > 0.85), whereby the drug is mainly released through the erosion of the polymer matrix and/or possibly hydrolysis of the ester-drug linkage where present.[99],[103]

NCTC 929 cells [4] = assay type: cell-based, murine; conditions: 24 h, fluorescence microscopy
Protocol: as §1
for a further 5 min. A stop reagent (50 μL) was then added, and the UV absorbance was measured at 490 nm using a Tecan Sunrise plate reader. […]
in absorbance: i) a high LDH release control representing 100% toxicity was generated by adding 5 μL of lysis solution to non-treated cells 15 min before the addition of the test reagent; ii) each peptoid-peptide was solubilized in media at the highest tested concentration (500 μM); iii) the LDH standard was added to the media; and iv) an equal volume of the highest solubilized peptoid-peptide concentration (500 μM) and the LDH standard were added to the media. The percentage of cell cytotoxicity was calculated using Equation 3 below and is reported once again as the mean of nine measurements (three replicates, repeated three times). […]

[5] = plasma zidovudine, IV 8.46 mg kg−1, mean ± SEM, n = 6
[6] = 5% w/v, 1–100 rad s-1, strain 0.5%, 37 °C, mean
[7] = 5% w/v hydrogel, PBS pH 7.4, 37 °C, n = 3
[8] = KinetDS fit of 28 day release profile

**Q.** Which results are given for Cc1cn([C@H]2C[C@H](N=[N+]=[N-])[C@@H](CO)O2)c(=O)[nH]c1=O [zidovudine]?
**A.** MRT0-∞,obs [1, 5]: approximately 1.58 hour; Tmax [1, 5]: 0.58 ± 0.08 h; MRT0-∞,obs ([1]; plasma zidovudine, IV 8.46 mg kg−1, mean ± SEM, n = 6, listed as Zidovudine): 1.58 ± 0.50 h; Time to undetectable plasma levels ([1]; IV control): ≤ 6 h; Plasma peak zidovudine concentration ([1]; IV control, mean plasma profile (Figure 5a), n = 6): 7,500 ng mL–1; IC90 range (HIV; 90% maximal inhibitory concentration): 30–130 ng mL–1; four times IC90 value (pharmacokinetic benchmark for HIV protection) (HIV): 120 ng mL–1

**Q.** With “(NPhe)4GGGGK(AZT)Y(p)-OH [peptoid-L-peptide covalently attached to zidovudine via an ester linkage at the lysine position]” as the molecule, how does the “Mean loss modulus (G″) from frequency sweeps” value (alkaline phosphatase; [6]) read?
**A.** The value was 112.18.

**Q.** And the “Mean storage modulus (G′) from frequency sweeps” value (alkaline phosphatase; [6])?
**A.** Its value is 856.11.

**Q.** And the “Tan δ = G″/G′ from freq sweeps” value (alkaline phosphatase; 5% w/v, frequency sweeps 1–100 rad s-1, strain 0.5%, 37 °C, from mean moduli)?
**A.** The value was 0.131.

**Q.** What about the “Gelation time: G′ and G″ cross” value (alkaline phosphatase; 5% w/v, time sweep after addition of 3.98 U mL-1 alkaline phosphatase, n = 3) of the same molecule?
**A.** Its value is ≤ 1 min.

**Q.** And the “Time for G′ and G″ to stabilize” value (alkaline phosphatase; 5% w/v, time sweep after addition of alkaline phosphatase)?
**A.** Its value is 135 min.

**Q.** What about the “Effect on cell metabolic activity (MTS) at 500 μM” value (NCTC 929 cells [2]) of the same molecule?
**A.** Its value is “cell toxicity was once again demonstrated only after 72 h”.

**Q.** What does the source list for “(NPhe)4GGGGK(AZT)Y-OH [peptoid-L-peptide hydrogel, chemically conjugated drug]”?
**A.** Strain at complete deformation (G′ and G″ intersect) (alkaline phosphatase; 37 °C): ~44%; Strain at which the weaker network breaks (alkaline phosphatase): ~4%; Strain at which the stronger second network or entanglement breaks (alkaline phosphatase): ~17.5%; Cumulative zidovudine released in the first 72 h ([3]; 5% w/v hydrogel, PBS pH 7.4, 37 °C, % of loaded drug, n = 3): 14.2%; Cumulative zidovudine released at the final time point (28 days) [3, 7]: 15.9%; Cumulative zidovudine released within the first 30 min [3, 7]: 11.04%; Weibull model shape factor β [3, 8]: 0.9550±0.11; Weibull model α [3, 8]: 5.362±0.75; Reduction of drug release in the first 72 h versus physical encapsulation ([3]; PBS pH 7.4, 37 °C, chemically conjugated vs physically encapsulated zidovudine): ~88%

**Q.** With “(NPhe)4GGGGKY-OH [dephosphorylated peptoid-L-peptide hydrogel]” as the molecule, how does the “Strain at which the weaker network breaks” value (alkaline phosphatase) read?
**A.** The value was ~5.78%.

**Q.** What about the “Strain at which the stronger second network or entanglement breaks” value (alkaline phosphatase) of the same molecule?
**A.** The value was ~36.5%.

**Q.** And the “Weibull model shape factor β” value [3, 8]?
**A.** Its value is 0.9550.

**Q.** For “(NPhe)4GGGGky(p)-OH [tetrabenzylamine-tetraglycine-D-lysine-O-phospho-D-tyrosine]”, which “G′ from frequency sweeps” value (alkaline phosphatase; 5% w/v) is on record?
**A.** The value was ~2030 Pa.

**Q.** And the “Strain at complete deformation (G′ and G″ intersect)” value (alkaline phosphatase; 37 °C)?
**A.** The value was ~192%.

**Q.** And the “Strain at which the weaker network breaks” value (alkaline phosphatase)?
**A.** The value was ~0.527%.

**Q.** And the “Strain at which the stronger second network or entanglement breaks” value (alkaline phosphatase)?
**A.** The value was ~4.81%.

**Q.** What about the “Live/Dead staining result at 500 μM” value (NCTC 929 cells [4]) of the same molecule?
**A.** The value was “demonstrated cytotoxicity”.

**Q.** Which “Live/Dead staining result at 500 μM” value (NCTC 929 cells [4]) does the source give for “tetrabenzylamine-tetraglycine-L-lysine-O-phospho-L-tyrosine [(NPhe)4GGGGKY(p)-OH]” here?
**A.** Its value is “no observable cytotoxic effects on live cells”.
